These results are taken from patent US8986995B2, “Methods of deriving differentiated cells from stem cells” (International Stem Cell Corporation, priority 2008, dated 2015).

One data set has as its system hpSC. As to the kind of experiment: Proportion of DE derived from hpSC, HDAC inhibitor pretreatment versus simultaneous application with Activin A. It counts as cell-based, human. The settings on record: for enhancement in the proportion of DE produced from hpSC: applied at the same time with Activin A.
The test system of the next data set is hpSC line 15 ph. The data set can be described thus: Flow cytometry for CXCR4-positive definitive endoderm cells after differentiation, line 15 ph. It counts as cell-based, human. The settings on record: TSA pretreatment. The procedure:
(§1) Cell culture. Undifferentiated hpSC and hESC were maintained on mouse embryo fibroblast feeder layers in KnockOut DMEM/F12 (Invitrogen) supplemented with 15% KnockOut serum replacement (Invitrogen), 0.05 mM nonessential amino acids (NEAA) (Invitrogen), 2 mM Glutamax-I (Invitrogen), penicillin/streptomycin (Invitrogen), 55 μM 2-mercapthoethonol (Invitrogen), 5 ng/ml recombinant human FGF-basic (PeproTech) and 20 ng/ml recombinant human activin A (R&D Systems); for TSA-pretreatment culture medium was supplemented with 100 nM TSA (Sigma) for 24 hours. Cultures were manually passaged at 1:4-1:6 split ratio every 5-7 days. Differentiation was carried out in RPMI 1640 (Invitrogen) supplemented with Glutamax-I, penicillin/streptomycin, 0.5 mg/ml human serum albumin (Sigma), 100 ng/ml recombinant human Activin A, 75 ng/ml recombinant mouse Wnt3a (R&D Systems) for the first 24 hours only. For subsequent days of differentiation media was RPMI 1640 supplemented with 0.2% human AB serum (Fisher BioReagents) and 100 ng/ml recombinant human Activin A. Before initiating differentiation, stem cells were given a brief wash in DPBS (HyClone). […]
(§2) Flow cytometry. […] Flow cytometry data were acquired on a Beckton Dickinson FACS Caliber and analyzed using FACSDiva software (BD Bioscience).
In general terms: Flow cytometry measures light scatter and fluorescence of single cells or particles in a stream.

The next data set relates to hpSC line 6 p. The data set can be described thus: Flow cytometry for CXCR4-positive definitive endoderm cells after differentiation, line 6 p. The settings on record: TSA pretreatment. It counts as cell-based, human. Here is the method: as §1, §2
The next data set deals with undifferentiated hpSC. The data set can be described thus: Cell death and morphology of undifferentiated hpSC under pretreatment. The data set is classed as cell-based, human. The settings on record: TSA pretreatment of undifferentiated hpSC. The procedure:
(§3) Cell culture. Undifferentiated hpSC and hESC were maintained on mouse embryo fibroblast feeder layers in KnockOut DMEM/F12 (Invitrogen) supplemented with 15% KnockOut serum replacement (Invitrogen), 0.05 mM nonessential amino acids (NEAA) (Invitrogen), 2 mM Glutamax-I (Invitrogen), penicillin/streptomycin (Invitrogen), 55 μM 2-mercapthoethonol (Invitrogen), 5 ng/ml recombinant human FGF-basic (PeproTech) and 20 ng/ml recombinant human activin A (R&D Systems); for TSA-pretreatment culture medium was supplemented with 100 nM TSA (Sigma) for 24 hours. Cultures were manually passaged at 1:4-1:6 split ratio every 5-7 days. Differentiation was carried out in RPMI 1640 (Invitrogen) supplemented with Glutamax-I, penicillin/streptomycin, 0.5 mg/ml human serum albumin (Sigma), 100 ng/ml recombinant human Activin A, 75 ng/ml recombinant mouse Wnt3a (R&D Systems) for the first 24 hours only. For subsequent days of differentiation media was RPMI 1640 supplemented with 0.2% human AB serum (Fisher BioReagents) and 100 ng/ml recombinant human Activin A. Before initiating differentiation, stem cells were given a brief wash in DPBS (HyClone). […] The protocol is divided into two stages: TSA-pretreatment stage (orange color) and DE differentiation stage (green color). […]

Data set [1] deals with human parthenogenetic stem cells (hpSC). As to the kind of experiment: Flow cytometry for CXCR4-positive cells, hpSC differentiation to definitive endoderm. The settings on record: all 4 hpSC lines, CXCR4-positive cells by flow cytometry. The data set is classed as cell-based. The procedure: as §1
Flow cytometry. […] Flow cytometry data were acquired on a Beckton Dickinson FACS Caliber and analyzed using FACSDiva software (BD Bioscience). […]

For the next data set, the system named is hpSC line 8 p. As to the kind of experiment: Flow cytometry for CXCR4-positive definitive endoderm cells after differentiation, line 8 p. The data set is classed as cell-based, human. The settings on record: TSA pretreatment. Here is the method:
as §1, §2

Data set [2] relates to LLC-6p parthenogenetic stem cell line. As to the kind of experiment: Immunostaining of definitive endoderm markers, Example 1 protocol. The settings on record: 100 μM TSA pretreatment, then D1, D2, D3 media. The data set is classed as cell-based, human. The procedure:
These endoderm-like cells were derived according a protocol of various culture media (D1-Activin A+Wnt3a; D2-Activin A; D3—Activin A; see Tables 1-4, below). However, prior to culture, the parthenogenetic cells were exposed to a pretreatment agent (trichostatin A (TSA)).
Accordingly, a protocol for generating definitive endoderm cells is as follows: (i) addition of 100 μM trichostatin A (TSA) to culture medium (phSC culture medium+TSA) and culture cells for about 24 hours; (ii) cultivation of the cells in phSC culture medium+TSA for about 24 hours; (iii) remove TSA from the culture (i.e., cultivation of the cells in culture medium D1 for about 24 hours); (iv) cultivation of the cells in culture medium D2 for about 24 hours; and (v) cultivation of the cells in culture medium D3 for about 24 hours.

In data set [3] the test system is human parthenogenetic stem cells (hpSC). The data set can be described thus: SOX17 immunostaining of differentiated hpSC. The data set is classed as cell-based. Here is the method: as §3
The subject of data set [4] is mouse embryonic stem cells. The settings on record: cited from earlier work.
The subject of data set [5] is human parthenogenetic stem cells (hpSC). The data set can be described thus: Real-time quantitative PCR of marker gene expression in hpSC. It counts as cell-based. Here is the method:
Cell culture. Undifferentiated hpSC and hESC were maintained on mouse embryo fibroblast feeder layers in KnockOut DMEM/F12 (Invitrogen) supplemented with 15% KnockOut serum replacement (Invitrogen), 0.05 mM nonessential amino acids (NEAA) (Invitrogen), 2 mM Glutamax-I (Invitrogen), penicillin/streptomycin (Invitrogen), 55 μM 2-mercapthoethonol (Invitrogen), 5 ng/ml recombinant human FGF-basic (PeproTech) and 20 ng/ml recombinant human activin A (R&D Systems); for TSA-pretreatment culture medium was supplemented with 100 nM TSA (Sigma) for 24 hours. Cultures were manually passaged at 1:4-1:6 split ratio every 5-7 days. Differentiation was carried out in RPMI 1640 (Invitrogen) supplemented with Glutamax-I, penicillin/streptomycin, 0.5 mg/ml human serum albumin (Sigma), 100 ng/ml recombinant human Activin A, 75 ng/ml recombinant mouse Wnt3a (R&D Systems) for the first 24 hours only. For subsequent days of differentiation media was RPMI 1640 supplemented with 0.2% human AB serum (Fisher BioReagents) and 100 ng/ml recombinant human Activin A. Before initiating differentiation, stem cells were given a brief wash in DPBS (HyClone). […] The protocol is divided into two stages: TSA-pretreatment stage (orange color) and DE differentiation stage (green color). TSA-pretreatment is performed against background of the culture conditions that support pluripotency state of the hpSC at time interval from “−24” hours till “0” hours. Differentiation starts from time point “0” hours by applying Activin A- and Wnt3a-signaling and withholding TSA from culture medium. Several markers characteristics of each cell population are listed.
Real-time quantitative PCR. Sample collection, reverse transcription and real-time PCR reactions were as previously described (D'Amour et al, Nat. Biotechnol 23:1534-41, 2005).

Another data set relates to hpSC line 2 p. As to the kind of experiment: Flow cytometry for CXCR4-positive definitive endoderm cells after differentiation, line 2 p. The settings on record: TSA pretreatment. The data set is classed as cell-based, human. The procedure: as §1, §2

Entries after “also recorded” stand apart in the source; their conditions may differ.

Consider `CCCC(=O)[O-].[Na+]` [NaB, sodium butyrate], for which the “enhancement in the proportion of DE produced from hpSC” value in the data set on hpSC was “did not produce any enhancement”. The “proportion of DE derived from hpSC” value with hpSC (pretreatment of hpSC before Activin A) is listed as “increased the proportion of DE”.

As to `CC(/C=C/C(=O)NO)=C\[C@@H](C)C(=O)c1ccc(N(C)C)cc1` [TSA, trichostatin A], the “CXCR-4 (CD184) + [% "Intact" Cells]” value is given as 24.1% in the data set with hpSC line 15 ph (3 day of differentiation); 34.2% with hpSC line 15 ph (4 day of differentiation); 61.2% with hpSC line 6 p (3 day of differentiation); 67.6% in the data set on hpSC line 6 p (4 day of differentiation); 67.1% with hpSC line 8 p (3 day of differentiation); 76.7% in the data set with hpSC line 8 p (4 day of differentiation). Moreover, the “CXCR-4 (CD184) + [% "Intact" Cells]” value in the data set with hpSC line 2 p (3 day of differentiation) was found to be 61.0%; in the data set on hpSC line 2 p (4 day of differentiation), 58.9%. Besides, the “enhancement in the proportion of DE produced from hpSC” value in the data set on hpSC was “did not produce any enhancement”. Also, in the data set with undifferentiated hpSC, the “cell death and cell morphology” value is reported as “some cell death as well as changes in cell morphology”. For the same compound, in data set [1], the “increase in number of definitive endoderm cells over non-pretreated cultures” value is 1.4-1.8 fold. Also, the “FoxA2 expression by immunostaining” value in data set [2] was “overwhelming majority of cells expressed FoxA2”. Also, the “Sox17 expression by immunostaining” value in [2] is listed as “majority of cells expressed Sox17”. In addition, the “relative proportion of SOX17 immunoreactive cells” value in data set [3] (after differentiation during 72 hours, TSA-treated versus non treated hpSC cultures) is “most numerous”. The “proportion of SOX17-positive cells” value in data set [3] (hpSC pretreated with TSA 24 hours, after 72 hours of differentiation) is reported as “greater than 70%”. For the same compound, the “effect on pluripotency factors including Nanog” value in [4] is recorded as “suppression of important pluripotency factors”. The “brachyury gene expression during differentiation” value in data set [5] (TSA-pretreated versus non TSA pretreated cultures, 24 h and 48 h of differentiation) was “higher peak level of brachyury gene expression at 24 h and sharper kinetic of reduced expression at 48 h; also recorded: significantly higher levels of brachyury transcripts”. Also, the “brachyury expression after pretreatment” value in data set [5] (after 24 hours TSA pretreatment, before start of differentiation (0h)) was “slight upregulation of brachyury expression”. For the same compound, the “expression of pluripotency genes OCT4 and SOX2 and DE genes CER1, SOX17, CXCR4” value in data set [5] (after TSA pretreatment, before start of differentiation (0h)) was “no significant changes”.
